# US11779602B2, “Methods of use for CAR T cells” (ENDOCYTE, INC., priority 2018, dated 2023)
# Legend:
# [1] = tested on: FR+ (KB, MDA-MB-231, HOS-FRα^fLuc, THP1-FRβ) tumor cell lines; experiment: CAR-T cell exhaustion markers and target cell apoptosis in co-culture with EC17-preloaded targets; type: cell-based, human; conditions: EC17 pre-loading 0.1 or 10 nM, E/T 1:2, day 2
# Method: To study CAR-T cell activation in the presence of FR+ tumor cell targets (FIGS. 53A-D), co-culture experiments were initially carried out with MDA-MB-231, THP1-FRβ and HOS-FRα. […] After 24 hours of co-culture, the surface expression of T cell activation markers CD69, CD137 (4-1BB), and PD1 were analyzed by flow cytometry. For T cell exhaustion studies (FIGS. 54A-C), FR+ (KB, MDA-MB-231, HOS-FRα^fLuc, THP1-FRβ) and FR-negative (HOS-143b^fLuc, THP1-FG12) tumor cell lines were used as targets. Here, target cells were incubated on day 0 without or with 0.1 and 10 nM of EC17 for 30 min at 37° C. and the status of EC17 “pre-loading” was assessed by counterstaining cell-surface EC17 with an anti-FITC antibody (FIG. 61A). Three days later, the surface expression of PD1, LAG3, and TIM3 inhibitor receptors on co-cultured CAR-T cells were analyzed and higher frequencies of double- and triple-positive cells were considered approaching an exhausted phenotype.
# To examine antigen-dependent CAR-T cell activation, MDA-MB-231, THP1-FRβ and HOS-FRα cells were preloaded with 100 nM EC17 over 30 min. […] After 24 hours of co-culture, we measured the surface expression of T cell activation markers CD69, CD137 (4-1BB) and PD1 (FIGS. 53A-D). […] Three days later, co-cultured CAR-T cells were measured for upregulation and co-expression of T cell activation/exhaustion markers PD1, LAGS and TIM3. […]
# [2] = tested on: HOS-FRα tumor; experiment: CRS toxicity and sodium fluorescein rescue in HOS-FRα tumor-bearing mice; type: in vivo
# Method: All animal care and use were performed according to NIH guidelines and in compliance with protocols approved by the Purdue University Animal Use and Care Committee. Female 4 to 5-week-old NOD/SCID gamma (NSG™) mice (stock number: 005557) were purchased from The Jackson Laboratory (Bar Harbor, Me.). Unless specifically indicated, all animals were maintained on a FA-deficient diet (TestDiet, St. Louis, Mo.) upon arrival and throughout the study. To establish subcutaneous xenografts, MDA-MB-231 and HOS-FRα were implanted in the right flank region at 2.5×10^6 and 1×10^6 cells per animal, respectively. For intravenous xenografts, THP1-FRβ cells were inoculated at 5×10^6 cells per animal. Subcutaneous tumors were measured 2-3 times per week with a caliper and calculated using the ellipsoidal formula (length×width^2)/2. […] All animal doses (CAR-T cells, EC17, sodium fluorescein) were given intravenously.
# Depending on the CAR-T cell dose and how EC17 is administered, tumor-bearing mice receiving FITC-specific CAR-T cells can experience severe CRS and varying degrees of body weight loss. Therefore, a CRS grading system (0-5 scale) was developed to empirically assess CRS toxicity from animals' gross morphology and social behavior to allow for better timing of CRS rescue. While grades 0 and 5 indicated normal (no CRS) or death (due to severe CRS), respectively, grades 1, 2, and 3-4 were considered mild, light-to-moderate, and severe CRS (FIG. 57A). In addition, all EC17 doses were intentionally given towards the end of any given day to allow potential CRS symptoms to develop overnight. On the days immediately following each EC17 dose, animals were scored and rescue agents such as sodium fluorescein, folic acid and leucovorin were used to mitigate CRS toxicity. In this particular instance, a batch of E2 CAR-T cells with a high EGFRt+CD4/CD8 ratio (˜93:7) was given to HOS-FRα tumor-bearing mice at a mixture of ˜2.5 million CD8 and ˜33 million CD4 on day 0 (FIG. 57B). […]
compound,measurement,setting,value
"NC1=NC2N=CC(CNc3ccc(C(=O)N[C@@H](CCC(=O)NCCNC(=S)Nc4ccc(-c5c6ccc(=O)cc-6oc6cc(O)ccc56)c(C(=O)O)c4)C(=O)O)cc3)=NC2C(=O)N1 (stereo partly drawn) [EC17, FA-(γ)-ethylenediamine-FITC]",target cell apoptosis (Annexin V+),[1],dose-dependent apoptosis (Annexin V+) was seen in all FR+ tumor cell lines
same,CRS grade (0-5 scale),"[2]; day 13, after EC17 500 nmol/kg on day 12",3 grade
same,CRS grade (0-5 scale),"[2]; days 4 and 11, after EC17 500 and 100 nmol/kg on days 3 and 10, ~35 million CAR-T cells",1-2 grade
